Legend:
Experiment in all cases: relative viability (nuclei count vs DMSO), 5 days (fraction); higher = more cells survive
Palbociclib + Navitoclax = compound: CC(=O)c1c(C)c2cnc(Nc3ccc(N4CCNCC4)cn3)nc2n(C2CCCC2)c1=O [Palbociclib] + CC1(C)CCC(c2ccc(Cl)cc2)=C(CN2CCN(c3ccc(C(=O)NS(=O)(=O)c4ccc(N[C@H](CCN5CCOCC5)CSc5ccccc5)c(S(=O)(=O)C(F)(F)F)c4)cc3)CC2)C1 [Navitoclax] (partner 0.5 µM)
Summary of the method: (§1)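 Relative viability equals treated-well nuclei counts divided by vehicle-well nuclei counts. Counts came from 4× images of lung cancer cell lines grown in 1536-well plates for 5 days after pin-tool dosing on the day after seeding. Dosing used one drug alone or a fixed anchor-drug dose plus five library-drug doses (not always all listed) in √10 steps, and values are medians of duplicate plates.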

Palbociclib + Luminespib = compound: CC(=O)c1c(C)c2cnc(Nc3ccc(N4CCNCC4)cn3)nc2n(C2CCCC2)c1=O [Palbociclib] + CCNC(=O)c1noc(-c2cc(C(C)C)c(O)cc2O)c1-c1ccc(CN2CCOCC2)cc1 [Luminespib] (partner 0.01 µM)
Summary of the method: as §1

Palbociclib + Alpelisib = compound: CC(=O)c1c(C)c2cnc(Nc3ccc(N4CCNCC4)cn3)nc2n(C2CCCC2)c1=O [Palbociclib] + Cc1nc(NC(=O)N2CCC[C@H]2C(N)=O)sc1-c1ccnc(C(C)(C)C(F)(F)F)c1 [Alpelisib] (partner 2 µM)
Summary of the method: as §1

Palbociclib + Lapatinib = compound: CC(=O)c1c(C)c2cnc(Nc3ccc(N4CCNCC4)cn3)nc2n(C2CCCC2)c1=O [Palbociclib] + CS(=O)(=O)CCNCc1ccc(-c2ccc3ncnc(Nc4ccc(OCc5cccc(F)c5)c(Cl)c4)c3c2)o1 [Lapatinib] (partner 2 µM)
Summary of the method: as §1

Cell Line	relative viability (Palbociclib + Navitoclax; first compound 0.01 µM)	relative viability (Palbociclib + Navitoclax; first compound 0.03162 µM)	relative viability (Palbociclib + Navitoclax; first compound 0.1 µM)	relative viability (Palbociclib + Navitoclax; first compound 0.3162 µM)	relative viability (Palbociclib + Navitoclax; first compound 1 µM)	relative viability (Palbociclib + Luminespib; first compound 0.01 µM)	relative viability (Palbociclib + Luminespib; first compound 0.03162 µM)	relative viability (Palbociclib + Luminespib; first compound 0.1 µM)	relative viability (Palbociclib + Luminespib; first compound 0.3162 µM)	relative viability (Palbociclib + Luminespib; first compound 1 µM)	relative viability (Palbociclib + Alpelisib; first compound 0.01 µM)	relative viability (Palbociclib + Alpelisib; first compound 0.03162 µM)	relative viability (Palbociclib + Alpelisib; first compound 0.1 µM)	relative viability (Palbociclib + Alpelisib; first compound 0.3162 µM)	relative viability (Palbociclib + Alpelisib; first compound 1 µM)	relative viability (Palbociclib + Lapatinib; first compound 0.01 µM)	relative viability (Palbociclib + Lapatinib; first compound 0.03162 µM)	relative viability (Palbociclib + Lapatinib; first compound 0.1 µM)	relative viability (Palbociclib + Lapatinib; first compound 0.3162 µM)	relative viability (Palbociclib + Lapatinib; first compound 1 µM)
NCI-H2170	0.624	0.552	0.74	0.578	0.549	0.536	0.536	0.558	0.707	0.536	0.797	0.767	0.776	0.715	0.601	0.29	0.23	0.245	0.233	0.25
NCI-H2228	0.99	1.01	0.729	0.856	0.827	0.173	0.182	0.149	0.126	0.098	0.73	0.566	0.609	0.59	0.589	1.26	0.909	0.923	0.95	0.959
NCI-H2347	0.835	0.751	0.646	0.6	0.533	0.41	–	0.366	0.429	0.453	1.15	0.979	0.642	0.789	0.597	0.957	0.823	0.71	0.682	0.751
NCI-H2405	0.866	–	0.574	0.729	0.722	0.818	0.893	0.613	0.843	0.534	0.792	–	0.441	0.678	0.494	1.04	–	0.819	0.901	0.761
NCI-H3122	0.941	0.982	0.921	0.757	0.618	0.081	0.0895	0.0794	0.0926	0.0834	0.76	0.667	0.688	0.46	0.353	0.994	0.998	0.911	0.819	0.579
PC-3 [JPC-3]	0.769	0.778	0.66	0.721	0.635	0.708	0.743	0.649	0.661	0.53	1.06	1.02	0.851	0.88	0.618	0.436	0.378	0.433	0.415	0.344
PC-14	1.14	0.932	0.908	0.877	0.605	0.141	–	0.151	0.127	0.176	1.02	0.936	0.782	0.762	0.671	0.348	0.343	0.257	0.202	0.195
RERF-LC-KJ	0.87	0.8	1.26	1.32	1.11	1.4	1.17	0.937	1.3	1.48	0.893	0.866	0.827	0.798	0.867	0.846	0.81	0.817	0.869	0.837
SK-LU-1	0.938	0.757	0.725	0.539	0.733	0.218	0.177	0.222	0.223	0.207	1.02	0.921	0.581	0.599	0.464	1.02	0.856	0.624	0.619	0.529
SK-MES-1	1.36	1.22	0.821	0.745	0.477	0.755	0.462	0.587	0.42	0.376	0.841	0.815	0.507	0.56	0.356	0.439	0.449	0.391	0.406	0.344
SW 1573	0.986	1	0.838	0.642	0.439	0.385	0.207	0.257	0.208	0.265	0.676	0.744	0.571	0.57	0.49	1.01	1.09	1.04	0.901	0.781
UMC-11	0.326	0.326	0.23	0.257	0.223	1.04	0.819	0.69	0.452	0.285	0.996	0.931	0.604	0.459	0.254	1.03	0.75	0.593	0.432	0.34
